Experimental findings from patent publication US20260125382A1, “COMPOUNDS FOR INHIBITING OR DEGRADING CDK2 AND/OR CDK9 AND MEDICINAL USE THEREOF” (KOREA RESEARCH INSTITUTE OF CHEMICAL TECHNOLOGY, priority 2022, published 2026) are described below.

SMILES strings stand for the structures.

One assay deals with T1, CDK2 (Homo sapiens, UniProt P24941).
T1 construct: endogenous in cells; host or cells: MDA-MB-231
Nature of the assay: CDK protein degradation activity (Western blotting), CDK2. It is filed as cell-based. Particulars: MDA-MB-231 cells, 16 hours, Western blot. The method in brief:
(§1)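 Seed MDA-MB-231 cells; next day add compound to 100 nM, 1 μM or 10 μM final, or DMSO. After 16 h, harvest and lyse in Triton X-100 buffer, run SDS-PAGE, probe for CDK2, CDK9 and tubulin.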
On the technique in general: Immunoblotting shows a protein as a band on a membrane.

A further assay has as its target T2, CDK9 (Homo sapiens, UniProt P50750).
T2 construct: endogenous in cells; host or cells: MDA-MB-231
Nature of the assay: CDK protein degradation activity (Western blotting), CDK9. The format is cell-based. To be noted: MDA-MB-231 cells, 16 hours, Western blot. The essentials:
as §1

T2 sequence (P50750 whole entry): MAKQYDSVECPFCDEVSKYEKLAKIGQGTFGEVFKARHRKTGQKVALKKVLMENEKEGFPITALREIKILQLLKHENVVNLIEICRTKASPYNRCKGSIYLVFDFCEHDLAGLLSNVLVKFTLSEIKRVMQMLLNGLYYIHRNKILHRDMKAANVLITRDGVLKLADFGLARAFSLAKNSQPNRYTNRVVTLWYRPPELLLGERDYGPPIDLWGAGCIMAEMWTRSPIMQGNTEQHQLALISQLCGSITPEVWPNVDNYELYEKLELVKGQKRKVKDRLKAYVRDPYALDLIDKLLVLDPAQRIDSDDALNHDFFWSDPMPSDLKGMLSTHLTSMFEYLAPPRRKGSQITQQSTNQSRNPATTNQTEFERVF

As for `O=C1CC[C@H](N2C(=O)c3cccc(N4CCC5(CC4)CC(N4CCC(c6ccc(Nc7ncnc8c7ncn8C7CC(NC(=O)Cc8ccccc8)C7)cc6)CC4)C5)c3C2=O)C(=O)N1` (stereo partly drawn) [Compound 297, N-((1s,3s)-3-(6-((4-(1-(7-(2-(2,6-dioxopiperidin-3-yl)-1,3-dioxoisoindolin-4-yl)-7-azaspiro[3.5]nonan-2-yl)piperidin-4-yl)phenyl)amino)-9H-purin-9-yl)cyclobutyl)-2-phenylacetamide], at CDK2, the “Enzyme degradation CDK2 (% remaining) @ 0.1 μM” value is on record as 20%, the “Enzyme degradation CDK2 (% remaining) @ 1 μM” value is 40% and the “Enzyme degradation CDK2 (% remaining) @ 10 μM” value stood at 40%. For the same compound, at CDK9, the “Enzyme degradation CDK9 (% remaining) @ 0.1 μM” value came out at 10%, the “Enzyme degradation CDK9 (% remaining) @ 1 μM” value is reported as 0% and the “Enzyme degradation CDK9 (% remaining) @ 10 μM” value is reported as 0%.
As to `O=C1CC[C@H](N2C(=O)c3ccc(N4CCC5(CC4)CC(N4CCC(c6ccc(Nc7ncnc8c7ncn8[C@H]7C[C@@H](NC(=O)Cc8ccccc8)C7)cc6)CC4)C5)cc3C2=O)C(=O)N1` [Compound 298, N-((1s,3s)-3-(6-((4-(1-(7-(2-(2,6-dioxopiperidin-3-yl)-1,3-dioxoisoindolin-5-yl)-7-azaspiro[3.5]nonan-2-yl)piperidin-4-yl)phenyl)amino)-9H-purin-9-yl)cyclobutyl)-2-phenylacetamide], on CDK2, the “Enzyme degradation CDK2 (% remaining) @ 0.1 μM” value is reported as 10/10/10%, the “Enzyme degradation CDK2 (% remaining) @ 1 μM” value is on record as 10/10/10% and the “Enzyme degradation CDK2 (% remaining) @ 10 μM” value is reported as 10/10/10%. Moreover, on CDK9, the “Enzyme degradation CDK9 (% remaining) @ 0.1 μM” value was 10%, the “Enzyme degradation CDK9 (% remaining) @ 1 μM” value was 0% and the “Enzyme degradation CDK9 (% remaining) @ 10 μM” value was 0%.
With `O=C1CC[C@H](N2C(=O)c3cc(F)c(N4CCC(CN5CCN(c6ccc(Nc7ncnc8c7ncn8C7CC(NC(=O)c8c(Cl)cccc8Cl)C7)cc6)CC5)CC4)cc3C2=O)C(=O)N1` (stereo partly drawn) [Compound 299, 2,6-dichloro-N-((1s,3s)-3-(6-((4-(4-((1-(2-(2,6-dioxopiperidin-3-yl)-6-fluoro-1,3-dioxoisoindolin-5-yl)piperidin-4-yl)methyl)piperazin-1-yl)phenyl)amino)-9H-purin-9-yl)cyclobutyl)benzamide], at CDK2, the “Enzyme degradation CDK2 (% remaining) @ 0.1 μM” value is reported as 30/30/30%, the “Enzyme degradation CDK2 (% remaining) @ 1 μM” value was 30/30/30% and the “Enzyme degradation CDK2 (% remaining) @ 10 μM” value is recorded as 30/30/30%. Also, at CDK9, the “Enzyme degradation CDK9 (% remaining) @ 0.1 μM” value was 0/0/0%, the “Enzyme degradation CDK9 (% remaining) @ 1 μM” value was 0/0/0% and the “Enzyme degradation CDK9 (% remaining) @ 10 μM” value was 0/0/0%.
As to `O=C1CC[C@H](N2C(=O)c3ccc(N4CCN(CC5CCN(c6ccc(Nc7ncnc8c7ncn8[C@H]7C[C@@H](NC(=O)c8c(Cl)cccc8Cl)C7)cc6)CC5)CC4)cc3C2=O)C(=O)N1` [Compound 300, 2,6-dichloro-N-((1s,3s)-3-(6-((4-(4-((4-(2-(2,6-dioxopiperidin-3-yl)-1,3-dioxoisoindolin-5-yl)piperazin-1-yl)methyl)piperidin-1-yl)phenyl)amino)-9H-purin-9-yl)cyclobutyl)benzamide], on CDK2, the “Enzyme degradation CDK2 (% remaining) @ 0.1 μM” value is recorded as 10/10/10%, the “Enzyme degradation CDK2 (% remaining) @ 1 μM” value was 10/10/10% and the “Enzyme degradation CDK2 (% remaining) @ 10 μM” value is recorded as 10/10/10%. Further, at CDK9, the “Enzyme degradation CDK9 (% remaining) @ 0.1 μM” value was 10%, the “Enzyme degradation CDK9 (% remaining) @ 1 μM” value worked out at 0% and the “Enzyme degradation CDK9 (% remaining) @ 10 μM” value was found to be 0%.
Take `O=C1CC[C@H](N2C(=O)c3cc(F)c(N4CCN(CC5CCN(c6ccc(Nc7ncnc8c7ncn8C7CC(NC(=O)c8c(Cl)cccc8Cl)C7)cc6)CC5)CC4)cc3C2=O)C(=O)N1` (stereo partly drawn) [Compound 301, 2,6-dichloro-N-((1s,3s)-3-(6-((4-(4-((4-(2-(2,6-dioxopiperidin-3-yl)-6-fluoro-1,3-dioxoisoindolin-5-yl)piperazin-1-yl)methyl)piperidin-1-yl)phenyl)amino)-9H-purin-9-yl)cyclobutyl)benzamide]: at CDK2, the “Enzyme degradation CDK2 (% remaining) @ 0.1 μM” value came out at 30%, the “Enzyme degradation CDK2 (% remaining) @ 1 μM” value stood at 20% and the “Enzyme degradation CDK2 (% remaining) @ 10 μM” value is reported as 10%. Also, on CDK9, the “Enzyme degradation CDK9 (% remaining) @ 0.1 μM” value stood at 70%, the “Enzyme degradation CDK9 (% remaining) @ 1 μM” value turned out to be 0% and the “Enzyme degradation CDK9 (% remaining) @ 10 μM” value is on record as 0%.
As for `Cc1cccc(C(=O)NC2CC(n3cnc4c(NCCC5CCN(CC6CCN(c7ccc8nnn([C@H]9CCC(=O)NC9=O)c(=O)c8c7)CC6)CC5)ncnc43)C2)n1` (stereo partly drawn) [Compound 304, N-((1s,3s)-3-(6-((2-(1-((1-(3-(2,6-dioxopiperidin-3-yl)-4-oxo-3,4-dihydrobenzo[d][1,2,3]triazin-6-yl)piperidin-4-yl)methyl)piperidin-4-yl)ethyl)amino)-9H-purin-9-yl)cyclobutyl)-6-methylpicolinamide], at CDK2, the “Enzyme degradation CDK2 (% remaining) @ 0.1 μM” value was 20%, the “Enzyme degradation CDK2 (% remaining) @ 1 μM” value is given as 30% and the “Enzyme degradation CDK2 (% remaining) @ 10 μM” value is recorded as 50%. At CDK9, the “Enzyme degradation CDK9 (% remaining) @ 0.1 μM” value is 20%, the “Enzyme degradation CDK9 (% remaining) @ 1 μM” value came out at 0% and the “Enzyme degradation CDK9 (% remaining) @ 10 μM” value stood at 0%.
Turning to `Cc1cccc(C(=O)NC2CC(n3cnc4c(NCCC5CCN(CC6CCN(c7cccc8c7C(=O)N([C@H]7CCC(=O)NC7=O)C8=O)CC6)CC5)ncnc43)C2)n1` (stereo partly drawn) [Compound 306, N-((1s,3s)-3-(6-((2-(1-((1-(2-(2,6-dioxopiperidin-3-yl)-1,3-dioxoisoindolin-4-yl)piperidin-4-yl)methyl)piperidin-4-yl)ethyl)amino)-9H-purin-9-yl)cyclobutyl)-6-methylpicolinamide], on CDK2, the “Enzyme degradation CDK2 (% remaining) @ 0.1 μM” value was 100/100/100%, the “Enzyme degradation CDK2 (% remaining) @ 1 μM” value was 100/100/100% and the “Enzyme degradation CDK2 (% remaining) @ 10 μM” value is 100/100/100%. In addition, on CDK9, the “Enzyme degradation CDK9 (% remaining) @ 0.1 μM” value came out at 30%, the “Enzyme degradation CDK9 (% remaining) @ 1 μM” value was 0% and the “Enzyme degradation CDK9 (% remaining) @ 10 μM” value is 10%.
Take `O=C1CC[C@H](n2nnc3ccc(N4CCC(CN5CCN(c6ccc(Nc7ncnc8c7ncn8C7CC(NC(=O)Cc8ccccc8)C7)cc6)CC5)CC4)cc3c2=O)C(=O)N1` (stereo partly drawn) [Compound 307, N-((1s,3s)-3-(6-((4-(4-((1-(3-(2,6-dioxopiperidin-3-yl)-4-oxo-3,4-dihydrobenzo[d][1,2,3]triazin-6-yl)piperidin-4-yl)methyl)piperazin-1-yl)phenyl)amino)-9H-purin-9-yl)cyclobutyl)-2-phenylacetamide]: at CDK2, the “Enzyme degradation CDK2 (% remaining) @ 0.1 μM” value was 0/0/0%, the “Enzyme degradation CDK2 (% remaining) @ 1 μM” value is on record as 0/0/0% and the “Enzyme degradation CDK2 (% remaining) @ 10 μM” value was 0/0/0%. At CDK9, the “Enzyme degradation CDK9 (% remaining) @ 0.1 μM” value is reported as 0/0/0%, the “Enzyme degradation CDK9 (% remaining) @ 1 μM” value is recorded as 0/0/0% and the “Enzyme degradation CDK9 (% remaining) @ 10 μM” value is reported as 0/0/0%.
For `Cc1cccc(C(=O)NC2CC(n3cnc4c(NCCC5CCN(CC6CCN(c7ccc8c(c7)C(=O)N([C@H]7CCC(=O)NC7=O)C8=O)CC6)CC5)ncnc43)C2)n1` (stereo partly drawn) [Compound 308, N-((1s,3s)-3-(6-((2-(1-((1-(2-(2,6-dioxopiperidin-3-yl)-1,3-dioxoisoindolin-5-yl)piperidin-4-yl)methyl)piperidin-4-yl)ethyl)amino)-9H-purin-9-yl)cyclobutyl)-6-methylpicolinamide], on CDK2, the “Enzyme degradation CDK2 (% remaining) @ 0.1 μM” value came out at 40%, the “Enzyme degradation CDK2 (% remaining) @ 1 μM” value is 30% and the “Enzyme degradation CDK2 (% remaining) @ 10 μM” value was 30%. Besides, on CDK9, the “Enzyme degradation CDK9 (% remaining) @ 0.1 μM” value was determined as 20%, the “Enzyme degradation CDK9 (% remaining) @ 1 μM” value amounted to 0% and the “Enzyme degradation CDK9 (% remaining) @ 10 μM” value was determined as 20%.
As to `Cc1cccc(C(=O)NC2CC(n3cnc4c(NCCC5CCN(CC6CCN(C(=O)C7CN(c8ccc9c(c8)C(=O)N([C@H]8CCC(=O)NC8=O)C9=O)C7)CC6)CC5)ncnc43)C2)n1` (stereo partly drawn) [Compound 309, N-((1s,3s)-3-(6-((2-(1-((1-(1-(2-(2,6-dioxopiperidin-3-yl)-1,3-dioxoisoindolin-5-yl)azetidin-3-carbonyl)piperidin-4-yl)methyl)piperidin-4-yl)ethyl)amino)-9H-purin-9-yl)cyclobutyl)-6-methylpicolinamide], on CDK2, the “Enzyme degradation CDK2 (% remaining) @ 0.1 μM” value came to 90%, the “Enzyme degradation CDK2 (% remaining) @ 1 μM” value turned out to be 80% and the “Enzyme degradation CDK2 (% remaining) @ 10 μM” value is 100%. At CDK9, the “Enzyme degradation CDK9 (% remaining) @ 0.1 μM” value is listed as 0/0/0%, the “Enzyme degradation CDK9 (% remaining) @ 1 μM” value is listed as 0/0/0% and the “Enzyme degradation CDK9 (% remaining) @ 10 μM” value is given as 0/0/0%.
In the case of `O=C1CC[C@H](N2C(=O)c3cccc(NCC(=O)N4CCN(CC5CCN(c6ccc(Nc7ncnc8c7ncn8[C@H]7C[C@@H](NC(=O)c8c(Cl)cccc8Cl)C7)cc6)CC5)CC4)c3C2=O)C(=O)N1` [Compound 311, 2,6-dichloro-N-((1s,3s)-3-(6-((4-(4-((4-((2-(2,6-dioxopiperidin-3-yl)-1,3-dioxoisoindolin-4-yl)glycyl)piperazin-1-yl)methyl)piperidin-1-yl)phenyl)amino)-9H-purin-9-yl)cyclobutyl)benzamide], on CDK2, the “Enzyme degradation CDK2 (% remaining) @ 0.1 μM” value came out at 10%, the “Enzyme degradation CDK2 (% remaining) @ 1 μM” value is reported as 20% and the “Enzyme degradation CDK2 (% remaining) @ 10 μM” value stood at 20%. Further, at CDK9, the “Enzyme degradation CDK9 (% remaining) @ 0.1 μM” value was determined as 10%, the “Enzyme degradation CDK9 (% remaining) @ 1 μM” value is reported as 0% and the “Enzyme degradation CDK9 (% remaining) @ 10 μM” value amounted to 0%.
